Measured values reported in US12251381B2, “Aripiprazole dosing strategy” (Alkermes Pharma Ireland Limited, priority 2018, dated 2025).

Assay: Phase 1 study: injection-site evaluation (injection-site reactions)
Format: in vivo, human
Conditions: for patients who experienced ISRs / patients with injection-site pain: associated with the named injection; for Injection-site discomfort / Injection-site erythema / Injection-site induration / Injection-site pain / Injection-site swelling / Patients with at least one ISR: reactions associated with the named injection on day 1
Procedure: The duration of the study was approximately 6 months and consisted of screening, inpatient dosing, outpatient, and follow-up period (FIG. 1). […] A total of 160 patients were planned to be enrolled and randomized 1:1:1:1 to one of four treatment groups, as follows: 1-day initiation regimen groups (30 mg oral aripiprazole plus ALNCD, plus either AL 441 or 882 mg [on day 1] then 20 days of oral placebo), or 21-day initiation regimen groups (15 mg oral aripiprazole plus placebo IM, plus either AL 441 or 882 mg [on day 1] followed by 20 days of oral aripiprazole 15 mg/day). […] ALNCD or placebo were administered as IM injections in the gluteal muscle. For the AL doses, a single 441 mg dose was given in the deltoid muscle or a single 882 mg dose in the gluteal muscle contralateral to the ALNCD (or placebo) injection. All safety analyses were performed using observed data from the safety population, and measurements included adverse events (AEs), vital signs measurements, weight, laboratory test results, ECG findings, Columbia-Suicide Severity Rating Scale (C-SSRS) responses, movement disorder measures, CGI-S responses, and injection-site evaluation. AEs were assessed daily on days 1-15, every other day from days 17-25, on days 28 and 31, once-weekly from days 35 to 85, and on days 113 and 141. Injection-site evaluations were carried out daily on days 1-15, every other day from days 17-25, and on day 28. The injection site and surrounding area were evaluated with each injection (separately for the ALNCD or placebo injection site and AL site). Any observed injection-site reactions were followed until resolution.

CCCCCCCCCCCC(=O)OCN1C(=O)CCc2ccc(OCCCCN3CCN(c4cccc(Cl)c4Cl)CC3)cc21 [AL, (7-(4-(4-(2,3-dichlorophenyl)piperazin-1-yl)butoxy)-2-oxo-3,4-dihydroquinolin-1(2H)-yl)methyl dodecanoate]
severity of Injection-Site Reactions (ISRs) (all ISRs associated with the injection): mild-to-moderate
patients who experienced ISRs (listed as AL 441 mg): 22.8%
patients with injection-site pain (listed as AL 441 mg): 20.3%
patients who experienced ISRs (listed as AL 882 mg): 18.3%
patients with injection-site pain (listed as AL 882 mg): 18.3%
Injection-site discomfort (listed as AL 441 mg): 1 (1.3) n (%)
Injection-site erythema (listed as AL 441 mg): 1 (1.3) n (%)
Injection-site induration (listed as AL 441 mg): 4 (5.1) n (%)
Injection-site pain (listed as AL 441 mg): 16 (20.3) n (%)
Injection-site swelling (listed as AL 441 mg): 2 (2.5) n (%)
Patients with at least one ISR (listed as AL 441 mg): 18 (22.8) n (%)
Injection-site discomfort (listed as AL 882 mg): 0 n (%)
Injection-site erythema (listed as AL 882 mg): 0 n (%)
Injection-site induration (listed as AL 882 mg): 2 (2.4) n (%)
Injection-site pain (listed as AL 882 mg): 15 (18.3) n (%)
Injection-site swelling (listed as AL 882 mg): 1 (1.2) n (%)
Patients with at least one ISR (listed as AL 882 mg): 15 (18.3) n (%)
